Results published in patent US20090209601A1, “USE OF RXR AGONISTS FOR THE TREATMENT OF OSTEOARTHRITIS” (Wyeth, priority 2008, published 2009).

Key:
RXRα = RXRα expression by qRT-PCR in cytokine-treated primary articular chondrocytes; assay type: cell-based; settings: primary human articular chondrocytes (n=4 donors), monolayer culture, 18 hours; IL-1β 1 ng/ml, TNFα 10 ng/ml; vs vehicle/untreated
Method: (§1) For isolation of RNA from chondrocytes in monolayer culture, pellets were digested with collagenase (2.5 mg/ml, Sigma, St Louis, Mo.) and RNA was subsequently prepared using TRIzol reagent (Invitrogen) according to the manufacturer's protocol. Primary chondrocytes in monolayer culture were lysed by direct addition of TRIzol reagent followed by standard TRIzol RNA purification methodologies.
(§2) Chondrocytes were isolated from fresh human articular cartilage using a standard method previously described (Heinlein et al., Endocr. Rev. 25:276-308 (2004)). Cells were cultured in 10% FBS containing DMEM/F12 growth media for 2-3 days in 12 well culture plates at a density of 1-2×10^6 cells/well. Chondrocyte cultures were stimulated with cytokines (TNFα: 10 ng/ml; IL-1β: 1 ng/ml) for 18 hours.
(§3) cDNA was prepared from purified RNA using the High-Capacity cDNA Archive Kit (Applied Biosystems, catalog #4322171) according to the manufacturer's instructions. Quantitative real-time PCR was performed using either human TaqMan® Gene Expression assays or TaqMan® Low Density Arrays (TLDA) from Applied Biosystems. Thermal cycling was performed using either an ABI Prism 7900 Sequence Detection System (for TLDA) or an ABI Prism 7700 Sequence Detection System (for individual TaqMan® Gene Expression Assays). […]

RXRγ = RXRγ expression by qRT-PCR in cytokine-treated primary articular chondrocytes; assay type: cell-based; settings: primary human articular chondrocytes (n=4 donors), monolayer culture, 18 hours; IL-1β 1 ng/ml, TNFα 10 ng/ml; vs vehicle/untreated
Method: as §1, §2, §3

Substance: IL-1: inflammatory cytokine purchased from R&D Systems, used to stimulate chondrocyte cultures
- RXRα expression (RXRα): significantly reduced
- RXRγ expression (RXRγ): not
